# Experimental data: ChEMBL document CHEMBL1136424, “Novel selective small molecule agonists for peroxisome proliferator-activated receptor delta (PPARdelta)--synthesis and biological activity” (Bioorg Med Chem Lett, 2003); call rule not given here
# Columns and labels:
# [1] = target: T1, Peroxisome proliferator-activated receptor delta (Homo sapiens, UniProt Q03181); assay: Maximum transcriptional activation of human PPAR delta receptor
# T1 sequence (Q03181 whole entry): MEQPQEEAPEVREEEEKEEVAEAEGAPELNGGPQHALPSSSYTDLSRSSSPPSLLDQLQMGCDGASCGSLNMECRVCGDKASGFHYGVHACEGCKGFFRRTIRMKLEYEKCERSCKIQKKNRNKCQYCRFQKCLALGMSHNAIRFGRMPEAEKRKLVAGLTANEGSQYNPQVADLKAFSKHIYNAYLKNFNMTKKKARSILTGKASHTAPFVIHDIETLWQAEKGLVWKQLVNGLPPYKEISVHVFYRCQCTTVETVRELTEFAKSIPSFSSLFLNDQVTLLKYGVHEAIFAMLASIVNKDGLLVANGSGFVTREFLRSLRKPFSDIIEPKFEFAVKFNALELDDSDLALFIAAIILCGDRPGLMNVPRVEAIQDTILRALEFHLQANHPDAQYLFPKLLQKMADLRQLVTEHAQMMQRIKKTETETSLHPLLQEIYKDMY
# [2] = target: T1, Peroxisome proliferator-activated receptor delta; assay: Binding affinity for human PPAR delta receptor
# [3] = target: T2, Peroxisome proliferator-activated receptor gamma (Homo sapiens, UniProt P37231); assay: Maximum transcriptional activation of human PPAR gamma receptor
# T2 sequence (P37231 whole entry): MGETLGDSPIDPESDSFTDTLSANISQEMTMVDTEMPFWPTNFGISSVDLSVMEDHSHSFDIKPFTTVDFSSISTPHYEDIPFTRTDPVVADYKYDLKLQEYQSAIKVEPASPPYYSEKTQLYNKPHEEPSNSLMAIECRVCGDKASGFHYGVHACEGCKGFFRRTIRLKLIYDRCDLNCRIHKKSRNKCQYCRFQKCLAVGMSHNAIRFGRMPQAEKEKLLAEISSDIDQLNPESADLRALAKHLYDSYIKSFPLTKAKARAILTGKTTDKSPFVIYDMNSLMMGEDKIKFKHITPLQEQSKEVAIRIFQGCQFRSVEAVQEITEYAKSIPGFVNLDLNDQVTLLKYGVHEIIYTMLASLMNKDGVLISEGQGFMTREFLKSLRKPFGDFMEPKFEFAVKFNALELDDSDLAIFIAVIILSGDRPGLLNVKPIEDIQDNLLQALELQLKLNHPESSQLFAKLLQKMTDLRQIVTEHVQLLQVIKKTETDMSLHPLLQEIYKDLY
# [4] = target: T3, Peroxisome proliferator-activated receptor alpha (Homo sapiens, UniProt Q07869); assay: Maximum transcriptional activation of human PPAR alpha receptor
# T3 sequence (Q07869 whole entry): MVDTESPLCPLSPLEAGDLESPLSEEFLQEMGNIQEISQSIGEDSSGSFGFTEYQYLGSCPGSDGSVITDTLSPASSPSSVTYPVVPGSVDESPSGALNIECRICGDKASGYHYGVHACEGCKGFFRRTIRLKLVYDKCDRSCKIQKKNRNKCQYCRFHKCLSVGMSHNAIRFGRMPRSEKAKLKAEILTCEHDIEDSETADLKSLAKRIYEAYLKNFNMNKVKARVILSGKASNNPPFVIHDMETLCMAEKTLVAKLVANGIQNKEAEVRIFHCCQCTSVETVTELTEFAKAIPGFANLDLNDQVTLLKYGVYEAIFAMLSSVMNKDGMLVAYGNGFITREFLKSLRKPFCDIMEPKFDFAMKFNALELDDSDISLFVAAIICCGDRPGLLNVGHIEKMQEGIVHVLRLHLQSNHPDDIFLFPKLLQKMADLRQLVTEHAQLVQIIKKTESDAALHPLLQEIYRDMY
# [5] = target: T2, Peroxisome proliferator-activated receptor gamma; assay: Maximum transcriptional activation of human PPAR gamma receptor; IA=inactive
# [6] = target: T3, Peroxisome proliferator-activated receptor alpha; assay: Maximum transcriptional activation of human PPAR alpha receptor; IA=inactive
# [7] = target: T4, Peroxisome proliferator-activated receptor gamma (Mus musculus, UniProt P37238); assay: Activity against murine PPAR gamma receptor
# T4 sequence (P37238 whole entry): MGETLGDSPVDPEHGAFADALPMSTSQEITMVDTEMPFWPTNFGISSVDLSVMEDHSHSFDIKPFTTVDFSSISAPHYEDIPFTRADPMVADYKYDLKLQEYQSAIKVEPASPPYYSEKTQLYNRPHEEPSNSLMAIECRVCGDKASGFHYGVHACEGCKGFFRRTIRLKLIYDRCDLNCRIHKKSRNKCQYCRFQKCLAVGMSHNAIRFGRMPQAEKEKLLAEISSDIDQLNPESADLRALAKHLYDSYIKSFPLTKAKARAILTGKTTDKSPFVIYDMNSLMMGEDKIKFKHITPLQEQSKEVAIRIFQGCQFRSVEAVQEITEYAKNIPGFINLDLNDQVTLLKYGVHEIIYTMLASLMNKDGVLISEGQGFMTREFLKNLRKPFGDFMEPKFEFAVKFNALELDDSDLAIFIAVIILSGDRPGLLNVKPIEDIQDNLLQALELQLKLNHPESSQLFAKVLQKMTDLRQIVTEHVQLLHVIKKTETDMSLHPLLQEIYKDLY
# [8] = Half-life was measured in mice; assay type: ADME, organism-based; details: mouse, in vivo
SMILES,EC50 [1],IC50 [2],EC50 [3],EC50 [4],EC50 [5],EC50 [6],EC50 [7],half-life [8]
Cc1nc(-c2ccc(C(F)(F)F)cc2)sc1COc1ccc(CCC(=O)O)cc1,90 nM,30 nM,7040 nM,3000 nM,–,–,–,–
Cc1cc(SCc2oc(-c3ccc(C(F)(F)F)cc3)nc2C)ccc1OCC(=O)O,10 nM,3 nM,1610 nM,2500 nM,–,–,–,–
Cc1nc(-c2ccc(C(F)(F)F)cc2)oc1COc1ccc(C(=O)O)cc1,5900 nM,5500 nM,–,–,Not Active,Not Active,–,–
Cc1cc(OCc2oc(-c3ccc(C(F)(F)F)cc3)nc2C)ccc1OCC(=O)O,30 nM,30 nM,–,3200 nM,Not Active,–,–,–
Cc1nc(-c2ccc(C(F)(F)F)cc2)oc1CSc1ccc(OCC(=O)O)cc1,420 nM,90 nM,6400 nM,–,–,Not Active,–,–
Cc1cc(SCc2sc(-c3ccc(C(F)(F)F)c(F)c3)nc2C)ccc1OCC(=O)O,–,–,2000 nM,1100 nM,–,–,> 10000 nM,–
Cc1nc(-c2ccc(C(F)(F)F)cc2)sc1COc1ccc(CC(=O)O)cc1,1900 nM,1000 nM,7900 nM,6900 nM,–,–,–,–
Cc1nc(-c2ccc(C(F)(F)F)cc2)oc1COc1ccc(CCC(=O)O)cc1,60 nM,90 nM,3300 nM,280 nM,–,–,–,< 10 min
Cc1cc(OCc2sc(-c3ccc(C(F)(F)F)cc3)nc2C)ccc1CCC(=O)O,30 nM,60 nM,4200 nM,1700 nM,–,–,–,–
Cc1cc(OCc2sc(-c3ccc(C(F)(F)F)cc3)nc2C)ccc1/C=C/C(=O)O,20 nM,1000 nM,2700 nM,3200 nM,–,–,–,–
Cc1nc(-c2ccc(C(F)(F)F)cc2)oc1COc1ccc(OCC(=O)O)cc1,470 nM,340 nM,9800 nM,–,–,Not Active,–,–
